These results are taken from ChEMBL document CHEMBL1932962, “Discovery, design and synthesis of novel potent and selective sphingosine-1-phosphate 4 receptor (S1P₄-R) agonists” (Bioorg Med Chem Lett, 2012).

Experiment [1] deals with T1, Sphingosine 1-phosphate receptor 4 (Homo sapiens, UniProt O95977).
T1 sequence (O95977 whole entry): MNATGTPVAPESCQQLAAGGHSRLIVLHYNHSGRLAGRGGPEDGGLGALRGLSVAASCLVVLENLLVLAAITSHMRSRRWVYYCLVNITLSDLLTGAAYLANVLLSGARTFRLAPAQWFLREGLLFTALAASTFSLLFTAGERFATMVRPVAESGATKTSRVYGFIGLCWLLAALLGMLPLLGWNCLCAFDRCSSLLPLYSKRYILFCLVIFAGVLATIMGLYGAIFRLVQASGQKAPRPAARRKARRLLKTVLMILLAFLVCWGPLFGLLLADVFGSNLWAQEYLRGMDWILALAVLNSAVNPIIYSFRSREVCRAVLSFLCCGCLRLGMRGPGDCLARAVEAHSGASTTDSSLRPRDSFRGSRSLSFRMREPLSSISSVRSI
Description: Agonist activity at human S1P4R expressed in human U2OS cells containing EDG6 gene co-expressing GAL4-VP16 and beta-arrestin/TEV protease assessed as migration of VP16-GAL4 into nucleus by […] based beta-lactamase reporter gene assay. It counts as functional, cell-based. Background: Reporter assays use an easily measured gene product as a stand-in for the process of interest.

Experiment [2] deals with T2, Sphingosine 1-phosphate receptor 4 (Homo sapiens) (UniProt O95977).
T2 sequence (whole entry): T1 sequence (O95977 whole entry)
The experiment in a line: Agonist activity at human S1P4R expressed in human U2OS cells containing EDG6 gene co-expressing GAL4-VP16 and beta-arrestin/TEV protease assessed as migration of VP16-GAL4 into nucleus at 50 uM by […] based beta-lactamase reporter gene assay. The format is functional, cell-based.

Experiment [3] has as its target Sphingosine 1-phosphate receptor 1 (Homo sapiens, UniProt P21453). The experiment in a line: Agonist activity at S1P1R up to 25 uM. The format is functional.
Experiment [4] concerns the target Sphingosine 1-phosphate receptor 2 (Homo sapiens, UniProt O95136). Description: Agonist activity at S1P2R up to 25 uM. The format is functional.
Experiment [5] has as its target Sphingosine 1-phosphate receptor 3 (Homo sapiens, UniProt Q99500). Description: Agonist activity at S1P3R up to 25 uM. The format is functional.
The target of experiment [6] is Sphingosine 1-phosphate receptor 5 (Homo sapiens, UniProt Q9H228). Description: Agonist activity at S1P5R up to 25 uM. The format is functional.
Sphingosine 1-phosphate receptor 5, sequence (Q9H228 whole entry, the tested form may be a part): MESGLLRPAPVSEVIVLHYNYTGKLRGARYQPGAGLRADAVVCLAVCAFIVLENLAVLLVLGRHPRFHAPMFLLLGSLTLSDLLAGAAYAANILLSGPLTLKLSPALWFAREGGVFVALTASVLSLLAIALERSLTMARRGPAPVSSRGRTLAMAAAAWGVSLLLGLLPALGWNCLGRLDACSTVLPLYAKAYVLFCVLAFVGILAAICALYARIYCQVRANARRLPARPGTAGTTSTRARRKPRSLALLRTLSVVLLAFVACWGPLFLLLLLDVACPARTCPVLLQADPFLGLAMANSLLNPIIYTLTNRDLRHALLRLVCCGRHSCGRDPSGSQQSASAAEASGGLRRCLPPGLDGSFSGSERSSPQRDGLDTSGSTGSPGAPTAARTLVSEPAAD
Experiment [7] concerns the target T1, Sphingosine 1-phosphate receptor 4. The experiment in a line: Agonist activity at human S1P4R expressed in human U2OS cells containing EDG6 gene co-expressing GAL4-VP16 and beta-arrestin/TEV protease assessed as migration of VP16-GAL4 into nucleus up to 25 uM by […] based beta-lactamase reporter gene assay. It counts as functional, cell-based.
Experiment [8] addresses T2, Sphingosine 1-phosphate receptor 4 (Homo sapiens). Description: Agonist activity at human S1P4R expressed in human U2OS cells containing EDG6 gene co-expressing GAL4-VP16 and beta-arrestin/TEV protease assessed as migration of VP16-GAL4 into nucleus at 2600 nM by […] based beta-lactamase reporter gene assay. The format is functional, cell-based.
Experiment [9] has the same target. Description: Agonist activity at human S1P4R expressed in human U2OS cells containing EDG6 gene co-expressing GAL4-VP16 and beta-arrestin/TEV protease assessed as migration of VP16-GAL4 into nucleus at 6000 nM by […] based beta-lactamase reporter gene assay. It counts as functional, cell-based.
Experiment [10] has the same target. The experiment in a line: Agonist activity at human S1P4R expressed in human U2OS cells containing EDG6 gene co-expressing GAL4-VP16 and beta-arrestin/TEV protease assessed as migration of VP16-GAL4 into nucleus at 1300 nM by […] based beta-lactamase reporter gene assay. The format is functional, cell-based.

Sphingosine 1-phosphate receptor 2, sequence (O95136 whole entry): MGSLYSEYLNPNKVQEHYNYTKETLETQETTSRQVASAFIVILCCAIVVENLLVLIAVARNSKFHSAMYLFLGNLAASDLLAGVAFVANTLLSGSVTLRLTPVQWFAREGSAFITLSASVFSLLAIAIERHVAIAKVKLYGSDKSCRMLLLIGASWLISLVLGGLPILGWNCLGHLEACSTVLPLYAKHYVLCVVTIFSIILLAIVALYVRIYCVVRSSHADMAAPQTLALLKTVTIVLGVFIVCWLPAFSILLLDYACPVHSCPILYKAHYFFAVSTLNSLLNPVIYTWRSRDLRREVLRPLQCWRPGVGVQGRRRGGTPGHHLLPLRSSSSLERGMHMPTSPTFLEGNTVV
Sphingosine 1-phosphate receptor 3, sequence (Q99500 whole entry): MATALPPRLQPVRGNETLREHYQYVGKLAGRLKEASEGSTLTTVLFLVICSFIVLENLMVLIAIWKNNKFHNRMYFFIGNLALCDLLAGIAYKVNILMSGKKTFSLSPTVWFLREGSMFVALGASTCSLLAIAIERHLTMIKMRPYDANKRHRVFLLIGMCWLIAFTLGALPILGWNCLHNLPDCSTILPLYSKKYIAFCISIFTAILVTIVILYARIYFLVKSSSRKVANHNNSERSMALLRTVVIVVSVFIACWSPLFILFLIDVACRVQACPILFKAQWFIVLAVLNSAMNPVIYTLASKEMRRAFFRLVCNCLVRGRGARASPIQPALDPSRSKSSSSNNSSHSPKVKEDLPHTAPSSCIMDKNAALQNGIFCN
Sphingosine 1-phosphate receptor 1, sequence (P21453 whole entry): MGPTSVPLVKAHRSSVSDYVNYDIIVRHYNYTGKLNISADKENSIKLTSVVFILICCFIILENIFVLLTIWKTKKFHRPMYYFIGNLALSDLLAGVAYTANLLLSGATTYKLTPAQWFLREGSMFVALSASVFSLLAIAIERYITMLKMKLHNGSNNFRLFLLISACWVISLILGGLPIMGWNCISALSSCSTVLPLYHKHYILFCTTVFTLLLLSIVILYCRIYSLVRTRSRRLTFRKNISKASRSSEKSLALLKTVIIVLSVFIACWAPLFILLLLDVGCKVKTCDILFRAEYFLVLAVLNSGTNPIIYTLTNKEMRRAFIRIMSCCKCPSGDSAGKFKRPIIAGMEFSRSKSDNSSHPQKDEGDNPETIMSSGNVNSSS

What is called EC50 is the midpoint of the concentration-response curve. On to `C=Cc1ccc(OCCOc2ccc(Cl)cc2Cl)c(Cl)n1`, for which, in experiment [1], the EC50 came to 658 nM.

The term inhibition denotes how much of the control response was suppressed. As to `Cc1ccc(OCCOc2ccc(F)cc2F)c([N+](=O)[O-])n1`, the inhibition in [2] stood at 40%.

Turning to `Cc1ccc(OCCOc2ccc(Br)cc2C(F)(F)F)c([N+](=O)[O-])n1`, the EC50 in experiment [1] was 601 nM; in experiment [3], “Not Active”; in [4], “Not Active”; in [5], “Not Active”; in experiment [6], “Not Active”.

For `Cc1ccc(OCCCc2ccc(Cl)cc2Cl)c([N+](=O)[O-])n1`, in experiment [1], the EC50 worked out at 920 nM.

For `Fc1ccc(OCCOc2ccc(Cl)cc2Cl)c(Br)n1`, the EC50 in experiment [1] came to 208 nM.

With `Cc1ccc(OCCOc2ccc(Cl)cc2Cl)c(N)n1`, in experiment [7], the concentration giving a half-maximal response (EC50) result was “Not Active”.

Regarding `Cc1ccc(OCCOc2c(Cl)cc(Cl)cc2Cl)c([N+](=O)[O-])n1`, the half-maximal effective concentration (EC50) in [1] is 570 nM; in experiment [3], “Not Active”; in experiment [4] it was “Not Active”; in experiment [5], “Not Active”; in experiment [6] it was “Not Active”.

As to `Cc1ccc(OCCOc2ccc(Cl)cc2Cl)c(C(=O)O)n1`, in experiment [7], the EC50 result was “Not Active”.

With `Clc1ccc(OCCOc2cccnc2Br)c(Cl)c1`, the EC50 in experiment [1] is 1300 nM.

As to `CCc1nc(C)ccc1OCCOc1ccc(Cl)cc1Cl`, the EC50 in experiment [1] was 7300 nM.

As for `Cc1cc(C)c(OCCOc2ccc(Cl)cc2Cl)c(Br)n1`, the EC50 entry in [7] is reported as “Not Active”.

As for `Cc1ccc(OCCOc2ccc(Cl)cc2Cl)c(C)n1`, the EC50 in experiment [1] stood at 2600 nM. In addition, in experiment [8], the inhibition was found to be 65%.

Consider `Cc1ccc(OCCOc2ccc(C)nc2[N+](=O)[O-])c(C)c1`, for which, in experiment [1], the EC50 was determined as 7200 nM.

Regarding `OCc1ccc(OCCOc2ccc(Cl)cc2Cl)c(I)n1`, the EC50 in [1] is 287 nM; in [3], “Not Active”; in [4], “Not Active”; in experiment [5], “Not Active”; in experiment [6] it was “Not Active”.

With `COc1cc(Cl)ccc1OCCOc1ccc(C)nc1[N+](=O)[O-]`, in [1], the EC50 was found to be 5400 nM.

With `O=Cc1ccc(OCCOc2ccc(Cl)cc2Cl)c(Cl)n1`, the EC50 in [1] turned out to be 1800 nM.

`Cc1ccc(OCCCOc2ccc(Cl)cc2Cl)c([N+](=O)[O-])n1`: the EC50 result in experiment [7] is listed as “Not Active”.

For the compound `Clc1ccc(OCCOc2ccc(Br)nc2Br)c(Cl)c1`, the EC50 in experiment [1] was 46 nM; in experiment [3], “Not Active”; in [4], “Not Active”; in experiment [5], “Not Active”; in experiment [6] it was “Not Active”.

With `Cc1ccc(OCCc2ccc(Cl)cc2Cl)c([N+](=O)[O-])n1`, in experiment [7], the EC50 result was “Not Active”.

Take `COC(=O)c1nc(C)ccc1OCCOc1ccc(Cl)cc1Cl`: the EC50 in experiment [1] was 4800 nM.

Turning to `O=[N+]([O-])c1ncccc1OCCOc1ccc(Cl)cc1Cl`, in experiment [1], the EC50 amounted to 2980 nM.

On to `CC(C)=Cc1ccc(OCCOc2ccc(Cl)cc2Cl)c(Cl)n1`, for which, in experiment [7], the EC50 result is “Not Active”.

Regarding `Cc1ccc(OCCOc2ccc(Cl)cc2Cl)c(C(=O)N(C)C)n1`, the EC50 result in experiment [7] is “Not Active”.

For `OCc1ccc(OCCOc2ccc(Cl)cc2Cl)c(Cl)n1`, the EC50 in experiment [1] is 1500 nM.

As to `COCc1ccc(OCCOc2ccc(Cl)cc2Cl)c(Cl)n1`, the EC50 entry in [7] is given as “Not Active”.

For `Cc1ccc(OCCOc2ccc(F)cc2Cl)c([N+](=O)[O-])n1`, the EC50 in [1] was determined as 2600 nM.

Take `Cc1ccc(OCCOc2ccc(Cl)cc2Cl)c(-c2ccccc2)n1`: the EC50 entry in [7] was “Not Active”.

For the compound `Cc1ccc(OCCOc2ccc(Cl)cc2)c([N+](=O)[O-])n1`, the EC50 entry in experiment [7] is recorded as “Not Active”.

For the compound `Cc1ccc(OCCOc2ccc([N+](=O)[O-])cc2F)c([N+](=O)[O-])n1`, the EC50 in [1] came to 2800 nM.

In the case of `Cc1ccc(OCCOc2ccc(Cl)cc2F)c([N+](=O)[O-])n1`, the EC50 in [1] came out at 3100 nM.

As for `Cc1ccc(OCCOc2ccc(Br)cc2Cl)c([N+](=O)[O-])n1`, the EC50 in experiment [1] was 220 nM; in experiment [3] it was “Not Active”; in [4], “Not Active”; in experiment [5] it was “Not Active”; in [6] it was “Not Active”.

As for `Cc1ccc(OCCOc2ccc(Cl)cc2Cl)cn1`, in [7], the EC50 entry is given as “Not Active”.

Regarding `Cc1ccc(OCCOc2cccc(Cl)c2Cl)c([N+](=O)[O-])n1`, in [7], the EC50 entry is listed as “Not Active”.

Turning to `COc1ccc(OCCOc2ccc(C)nc2[N+](=O)[O-])c(Cl)c1`, the EC50 in experiment [1] came to 3900 nM.

In the case of `Cc1ccc(OCCOc2ccc(Cl)cc2Cl)c([N+](=O)[O-])n1`, the EC50 in experiment [1] was 162 nM; in experiment [3], “Not Active”; in [4], “Not Active”; in [5] it was “Not Active”; in experiment [6], “Not Active”.

For the compound `Cc1ccc(OCCOc2ccc(Cl)cc2Cl)c(I)n1`, the EC50 is 54 nM in experiment [1]; “Not Active” in experiment [3]; “Not Active” in experiment [4]; “Not Active” in experiment [5]; “Not Active” in experiment [6].

`Cc1ccc(OC2CCCC2Oc2ccc(Cl)cc2Cl)c([N+](=O)[O-])n1` (stereo unspecified): the EC50 result in [7] is “Not Active”.

For the compound `Cc1ccc(OCCOc2ccc(Cl)cc2Br)c([N+](=O)[O-])n1`, the EC50 was 232 nM in experiment [1]; “Not Active” in [3]; “Not Active” in experiment [4]; “Not Active” in experiment [5]; “Not Active” in experiment [6].

As to `Cc1ccc(OCCOc2ccc(Cl)cc2Cl)c(Br)n1`, the EC50 in experiment [1] was 52 nM; in experiment [3], “Not Active”; in experiment [4], “Not Active”; in [5], “Not Active”; in [6] it was “Not Active”.

Regarding `Clc1ccc(OCCOc2ccc(-c3ccccc3)nc2Br)c(Cl)c1`, the EC50 in [1] was 6000 nM. Moreover, the inhibition in experiment [9] turned out to be 70%.

On to `Cc1ccc(OCCOc2cc(Cl)ccc2Cl)c([N+](=O)[O-])n1`, for which the EC50 entry in experiment [7] is listed as “Not Active”.

On to `Cc1ccc(OCCOc2ccccc2)c([N+](=O)[O-])n1`, for which, in experiment [7], the EC50 result was “Not Active”.

As for `O=Cc1ccc(OCCOc2ccc(Cl)cc2Cl)c(I)n1`, the EC50 in experiment [1] is 2100 nM.

Turning to `Cc1ccc(OCCOc2ccc(Cl)cc2Cl)c([N+](=O)[O-])c1`, the EC50 in experiment [1] came out at 1300 nM. Besides, the inhibition in experiment [10] turned out to be 40%.

For the compound `FCc1ccc(OCCOc2ccc(Cl)cc2Cl)c(Cl)n1`, the EC50 in experiment [1] is 45 nM; in [3], “Not Active”; in [4], “Not Active”; in experiment [5], “Not Active”; in experiment [6], “Not Active”.

As to `Cc1ccc2oc(COc3ccc(Cl)cc3Cl)nc2n1`, the EC50 entry in [7] was “Not Active”.

In the case of `Cc1ccc(OCCOc2ccc(Cl)c(Cl)c2)c([N+](=O)[O-])n1`, the EC50 entry in [7] is recorded as “Not Active”.

On to `O=[N+]([O-])c1nc(Cl)ccc1OCCOc1ccc(Cl)cc1Cl`, for which the EC50 in experiment [1] was 304 nM; in experiment [3] it was “Not Active”; in experiment [4], “Not Active”; in [5], “Not Active”; in experiment [6], “Not Active”.

Turning to `Cc1ccc(OCCOc2ccc(Cl)cc2Cl)c(CO)n1`, the EC50 result in [7] was “Not Active”.

On to `Cc1ccc(NCCOc2ccc(Cl)cc2Cl)c([N+](=O)[O-])n1`, for which, in experiment [7], the EC50 result was “Not Active”.

For `Cc1ccc(OCCOc2ccccc2Cl)c([N+](=O)[O-])n1`, the half-maximal effective concentration (EC50) result in [7] is reported as “Not Active”.

As for `Cc1ccc(OCCOc2ccc(-c3ccccc3)cc2Cl)c([N+](=O)[O-])n1`, the EC50 entry in experiment [7] is given as “Not Active”.

Take `Cc1ccc(OCCOc2cc(Cl)cc([N+](=O)[O-])c2)c([N+](=O)[O-])n1`: the EC50 in experiment [1] came to 3500 nM.

`Cc1ccc(OC(=O)COc2ccc(Cl)cc2Cl)c([N+](=O)[O-])n1`: the EC50 result in [7] is on record as “Not Active”.
